The text below walks through data of ChEMBL document CHEMBL4033740, “Novel phenanthrene and isocoumarin from the rhizomes of Dioscorea nipponica Makino subsp. rosthornii (Prain et Burkill) C. T. Ting (Dioscoreaceae)” (Bioorg Med Chem Lett, 2017).

The experiment concerns NCI-H460. Briefly: Cytotoxicity against human NCI-H460 cells incubated for 24 hrs by MTT assay. The class given is functional, cell-based. The note with it: NCI-H460, 24 h. (Formazan colour is commonly taken as a measure of viable cells.)

As usually defined, the IC50 is the point on the concentration scale where inhibition reaches its midpoint. Consider `C[C@@H]1CC[C@@]2(OC1)O[C@H]1C[C@H]3[C@@H]4CC=C5C[C@@H](O[C@@H]6O[C@H](CO)[C@@H](O[C@@H]7O[C@H](CO)[C@@H](O)[C@H](O)[C@H]7O)[C@H](O)[C@H]6O[C@@H]6O[C@@H](C)[C@H](O)[C@@H](O)[C@H]6O)CC[C@]5(C)[C@H]4CC[C@]3(C)[C@H]1[C@@H]2C` [DELTONIN], for which the IC50 stood at 5.81 µM.

With `C[C@H]1[C@H]2[C@H](C[C@H]3[C@@H]4CC=C5C[C@@H](O)CC[C@]5(C)[C@H]4CC[C@]23C)O[C@]12CC[C@@H](CO)CO2`, the IC50 is > 50 µM.

`C[C@@H]1CC[C@@]2(OC1)O[C@H]1C[C@H]3[C@@H]4CC=C5C[C@@H](O[C@@H]6O[C@H](CO)[C@@H](O)[C@H](O)[C@H]6O[C@@H]6O[C@@H](C)[C@H](O)[C@@H](O)[C@H]6O)CC[C@]5(C)[C@H]4CC[C@]3(C)[C@H]1[C@@H]2C` [OPHIOPOGONIN C] gave an IC50 of 5.04 µM.

With `O=C(C[C@@H]1C[C@@H](O)C[C@H](c2ccccc2)O1)c1ccccc1`, the IC50 was > 50 µM.

In the case of `CC(=O)O[C@H]1CC[C@@]2(C)C(=CC[C@H]3[C@@H]4C[C@@H]5O[C@]6(CC[C@@H](C)CO6)[C@@H](C)[C@@H]5[C@@]4(C)CC[C@@H]32)C1`, the IC50 was > 50 µM.

Take `O=C(/C=C/C=C/c1ccc(O)cc1)CCc1ccc(O)cc1`: the IC50 was > 50 µM.

Regarding `O=C1O[C@H](c2ccccc2)Cc2cc(O)cc(O)c21`, the IC50 is > 50 µM.

For `C[C@@H]1CC[C@@]2(OC1)O[C@H]1C[C@H]3[C@@H]4CC=C5C[C@@H](O)CC[C@]5(C)[C@H]4CC[C@]3(C)[C@H]1[C@@H]2C` [DISOGENIN], the IC50 was > 50 µM.

`C[C@@H]1CC[C@@]2(OC1)O[C@H]1C[C@H]3[C@@H]4CC=C5C[C@@H](O[C@@H]6O[C@H](CO)[C@@H](O[C@@H]7O[C@@H](C)[C@H](O)[C@@H](O)[C@H]7O)[C@H](O)[C@H]6O[C@@H]6O[C@@H](C)[C@H](O)[C@@H](O)[C@H]6O)CC[C@]5(C)[C@H]4CC[C@]3(C)[C@H]1[C@@H]2C` [DIOSCIN] registered an IC50 of 4.56 µM.

As for `O=c1oc(-c2ccccc2O)cc2cc3c(c(O)c12)OCO3`, the IC50 was > 50 µM.

As for `CC[C@H](CC[C@@H](C)[C@H]1CC[C@H]2[C@@H]3CC=C4C[C@@H](O[C@@H]5O[C@H](CO)[C@@H](O)[C@H](O)[C@H]5O)CC[C@]4(C)[C@H]3CC[C@]12C)C(C)C` [SITOGLUSIDE], the IC50 is > 50 µM.

For `COc1cc2ccc3c(-c4c(OC)cc(O)c5c4ccc4cc(OC)c(O)cc45)c(OC)cc(O)c3c2cc1O`, the IC50 is 23.1 µM. In other words, the double-digit micromolar range.

Consider `CCCCC(CC)COC(=O)c1ccccc1C(=O)OCC(CC)CCCC` (centres undefined) [BIS(2-ETHYLHEXYL) PHTHALATE], for which the IC50 was > 50 µM.

As to `CC(C)C[C@H]1NC(=O)[C@@H]2CCCN2C1=O`, the IC50 was > 50 µM.
